What was measured:
[1] = biological target: T1, NUAK2 (h) (Homo sapiens, UniProt Q9H093); assay: NUAK2 enzymatic assay (radiometric, Eurofins); format: biochemical; conditions: for IC50: radiometric, full-length recombinant enzyme; for AUR-A (IC50, nM)/NUAK2 (IC50, nM): NUAK2 selectivity over Aurora-A, ratio of IC50s
T1 construct: This assay was done radiometrically using full-length, recombinant enzyme; purchased Eurofins
T1 sequence (Q9H093 1-628): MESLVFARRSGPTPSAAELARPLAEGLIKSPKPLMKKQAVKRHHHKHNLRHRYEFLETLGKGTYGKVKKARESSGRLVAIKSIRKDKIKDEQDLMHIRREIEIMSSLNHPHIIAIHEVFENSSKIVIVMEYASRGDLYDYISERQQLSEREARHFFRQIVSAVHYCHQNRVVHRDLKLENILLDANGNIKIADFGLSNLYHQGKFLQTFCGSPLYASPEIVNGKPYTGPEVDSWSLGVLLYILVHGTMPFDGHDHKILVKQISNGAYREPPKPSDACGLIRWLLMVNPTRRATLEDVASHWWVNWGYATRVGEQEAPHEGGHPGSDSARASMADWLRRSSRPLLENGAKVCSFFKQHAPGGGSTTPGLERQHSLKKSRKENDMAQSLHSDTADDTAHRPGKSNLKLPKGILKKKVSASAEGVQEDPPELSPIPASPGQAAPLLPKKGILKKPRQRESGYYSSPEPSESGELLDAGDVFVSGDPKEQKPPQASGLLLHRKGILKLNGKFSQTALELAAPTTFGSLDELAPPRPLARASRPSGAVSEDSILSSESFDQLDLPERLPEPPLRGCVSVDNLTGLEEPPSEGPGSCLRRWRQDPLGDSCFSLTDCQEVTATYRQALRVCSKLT
Summary of the method: (§1)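 Radiometric assay with full-length recombinant NUAK2 in 8 mM MOPS pH 7.0, 0.2 mM EDTA, 10 mM magnesium acetate, 300 μM peptide substrate and [33P]-ATP, 40 min at room temperature. Phosphoric acid stop, filter capture, scintillation counting. Aurora A and NUAK1 used as counter screens.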

[2] = biological target: T2, NUAK1 (Homo sapiens, UniProt O60285); assay: NUAK1 counter screen; format: biochemical
T2 sequence (O60285 1-661): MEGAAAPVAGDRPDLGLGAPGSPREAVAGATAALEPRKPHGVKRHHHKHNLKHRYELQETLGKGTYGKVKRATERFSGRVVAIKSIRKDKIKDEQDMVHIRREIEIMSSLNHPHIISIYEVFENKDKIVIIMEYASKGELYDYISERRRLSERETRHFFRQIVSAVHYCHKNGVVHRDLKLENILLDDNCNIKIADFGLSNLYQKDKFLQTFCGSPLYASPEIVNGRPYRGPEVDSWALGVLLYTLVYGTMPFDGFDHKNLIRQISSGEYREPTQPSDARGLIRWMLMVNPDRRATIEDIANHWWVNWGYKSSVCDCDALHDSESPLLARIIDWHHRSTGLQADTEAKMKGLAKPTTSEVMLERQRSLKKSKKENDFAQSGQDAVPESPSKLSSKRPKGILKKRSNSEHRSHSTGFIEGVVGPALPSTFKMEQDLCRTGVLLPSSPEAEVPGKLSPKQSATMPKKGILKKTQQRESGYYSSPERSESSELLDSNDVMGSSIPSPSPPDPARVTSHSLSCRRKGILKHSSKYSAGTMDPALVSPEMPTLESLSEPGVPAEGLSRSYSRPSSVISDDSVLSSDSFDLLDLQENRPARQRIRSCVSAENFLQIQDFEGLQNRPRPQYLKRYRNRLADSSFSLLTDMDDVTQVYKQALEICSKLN
Summary of the method: as §1

[3] = biological target: T3, Aurora A (Homo sapiens, UniProt O14965); assay: Aurora A counter screen; format: biochemical; conditions: read-out: AUR-A (IC50)
T3 sequence (O14965 1-403): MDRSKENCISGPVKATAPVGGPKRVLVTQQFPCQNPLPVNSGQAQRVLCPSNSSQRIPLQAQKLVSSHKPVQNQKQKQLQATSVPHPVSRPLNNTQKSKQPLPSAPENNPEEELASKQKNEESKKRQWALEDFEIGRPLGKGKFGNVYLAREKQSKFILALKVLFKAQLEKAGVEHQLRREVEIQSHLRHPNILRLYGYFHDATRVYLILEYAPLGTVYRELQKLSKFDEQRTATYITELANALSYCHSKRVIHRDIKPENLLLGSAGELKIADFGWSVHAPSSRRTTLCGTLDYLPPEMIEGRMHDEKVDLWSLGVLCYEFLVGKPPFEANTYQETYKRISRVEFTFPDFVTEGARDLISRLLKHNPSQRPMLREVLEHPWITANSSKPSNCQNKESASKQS
Summary of the method: as §1

[4] = test system: MDA-MB-231 cells; assay: Tumor cell growth inhibition assay (ATPlite); format: cell-based; conditions: Homo sapiens, 120 h, MDA-MB-231 breast tumor cell line, 5 days
Procedure: MDA-MB-231 cells were seeded into a 384-well plate at 1,000 cells/well in 50 μl medium (Alpha-MEM containing 10% FBS, […] Normocin, Invivogen and […] Gentamycin, Invitrogen). Plates were then incubated overnight for the cells to attach. An HP D300 digital dispenser was used to dose cells with DMSO or test compounds across a 16-point range of concentrations (high dose of 10 uM to low dose of 5 nM). Plates were incubated in a humidified 5% CO2 incubator at 37° C. After 5 days, plates were removed from the incubator and equilibrated to room temperature. An equal volume of ATPlite assay reagent was then added to each well, and samples processed according to manufacturer's instructions (Perkin Elmer). Luminescent signals were then measured using an Envision plate reader equipped with a US-Luminescence detector.

| Structure (SMILES) | IC50 [1] [nM] | IC50 [2] [nM] | IC50 [3] [nM] | IC50 [4] [nM] | AUR-A (IC50, nM)/NUAK2 (IC50, nM) [1] |
| --- | --- | --- | --- | --- | --- |
| CC(C)N1CCN(C2CCN(c3ccc(Nc4ncc(C(F)(F)F)c(Nc5ccsc5C(N)=O)n4)c(OC(F)F)c3)CC2)CC1 [Compound I-78, 3-((2-((2-(difluoromethoxy)-4-(4-(4-isopropylpiperazin-1-yl)piperidin-1-yl)phenyl)amino)-5-(trifluoromethyl)pyrimidin-4-yl)amino)thiophene-2-carboxamide] | 11 to 100 | 11 to 100 | 101 to 1000 | 96 |  |
| CN1CCCN(C2CCN(c3ccc(Nc4ncc(C(F)(F)F)c(Nc5ccsc5C(N)=O)n4)c(OC(F)F)c3)CC2)CC1 [Compound I-75, 3-((2-((2-(difluoromethoxy)-4-(4-(4-methyl-1,4-diazepan-1-yl)piperidin-1-yl)phenyl)amino)-5-(trifluoromethyl)pyrimidin-4-yl)amino)thiophene-2-carboxamide] | 0.1 to 10 | 11 to 100 | 101 to 1000 | 120 |  |
| CN1CCN(C2CCN(c3ccc(Nc4ncc(Cl)c(Nc5ccsc5C(N)=O)n4)c(OC(F)F)c3)CC2)CC1 [Compound I-41, 3-((5-chloro-2-((2-(difluoromethoxy)-4-(4-(4-methylpiperazin-1-yl)piperidin-1-yl)phenyl)amino)pyrimidin-4-yl)amino)thiophene-2-carboxamide] | 11 to 100 | 11 to 100 | 101 to 1000 | 202 | 30 |
| CN1C2CCC1CN(c1ccc(Nc3ncc(Cl)c(Nc4ccsc4C(N)=O)n3)c(OC(F)F)c1)C2 [Compound I-30, 3-((5-chloro-2-((2-(difluoromethoxy)-4-(8-methyl-3,8-diazabicyclo[3.2.1]octan-3-yl)phenyl)amino)pyrimidin-4-yl)amino)thiophene-2-carboxamide] | 0.1 to 10 | 11 to 100 | 101 to 1000 | 144 |  |
| CN1CCN(c2ccc(Nc3ncc(Cl)c(Nc4sccc4C(N)=O)n3)c(OC(F)(F)F)c2)CC1 [Compound I-19, 2-((5-chloro-2-((4-(4-methylpiperazin-1-yl)-2-(trifluoromethoxy)phenyl)amino)pyrimidin-4-yl)amino)thiophene-3-carboxamide] | 11 to 100 | 101 to 1000 | > 1000 |  |  |
| C[C@H]1CN(C2CCN(c3ccc(Nc4ncc(Cl)c(Nc5ccsc5C(N)=O)n4)c(OC(F)F)c3)CC2)CCN1C [Compound I-65, (S)-3-((5-chloro-2-((2-(difluoromethoxy)-4-(4-(3,4-dimethylpiperazin-1-yl)piperidin-1-yl)phenyl)amino)pyrimidin-4-yl)amino)thiophene-2-carboxamide] | 11 to 100 | 11 to 100 | 101 to 1000 |  |  |
| CN1CCN(c2ccc(Nc3ncc(Cl)c(Nc4ccsc4C(N)=O)n3)c(Cl)c2F)CC1 [Compound C-4, reference compound] | 0.1 to 10 | 0.1 to 10 | 101 to 1000 |  | 50 |
| NC(=O)c1sccc1Nc1nc(Nc2ccc(N3CCN(CC(F)(F)F)CC3)cc2OC(F)F)ncc1Cl [Compound I-33, 3-((5-chloro-2-((2-(difluoromethoxy)-4-(4-(2,2,2-trifluoroethyl)piperazin-1-yl)phenyl)amino)pyrimidin-4-yl)amino)thiophene-2-carboxamide] | 101 to 1000 | 101 to 1000 | 101 to 1000 |  |  |
| CC(C)(C)N1CCN(C2CCN(c3ccc(Nc4ncc(Cl)c(Nc5ccsc5C(N)=O)n4)c(OC(F)F)c3)CC2)CC1 [Compound I-63, 3-((2-((4-(4-(4-(tert-butyl)piperazin-1-yl)piperidin-1-yl)-2-(difluoromethoxy)phenyl)amino)-5-chloropyrimidin-4-yl)amino)thiophene-2-carboxamide] | 11 to 100 | 0.1 to 10 | 101 to 1000 |  |  |
| CN1CCN(c2ccc(Nc3ncc(C(F)(F)F)c(Nc4ccsc4C(N)=O)n3)c(OC(F)F)c2)CC1 [Compound I-27, 3-((2-((2-(difluoromethoxy)-4-(4-methylpiperazin-1-yl)phenyl)amino)-5-(trifluoromethyl)pyrimidin-4-yl)amino)thiophene-2-carboxamide] | 0.1 to 10 | 0.1 to 10 | 101 to 1000 |  |  |
| NC(=O)c1sccc1Nc1nc(Nc2ccc(N3CCC(O)CC3)cc2OC(F)F)ncc1Cl [Compound I-60, 3-((5-chloro-2-((2-(difluoromethoxy)-4-(4-hydroxypiperidin-1-yl)phenyl)amino)pyrimidin-4-yl)amino)thiophene-2-carboxamide] | 11 to 100 | 11 to 100 | 11 to 100 |  |  |
| CCN1CCN(C2CCN(c3ccc(Nc4ncc(C(F)(F)F)c(Nc5ccsc5C(N)=O)n4)c(OC(F)F)c3)CC2)CC1 [Compound I-77, 3-((2-((2-(difluoromethoxy)-4-(4-(4-ethylpiperazin-1-yl)piperidin-1-yl)phenyl)amino)-5-(trifluoromethyl)pyrimidin-4-yl)amino)thiophene-2-carboxamide] | 0.1 to 10 | 0.1 to 10 | 101 to 1000 |  |  |
| CC(C)Oc1cc(N2CCN(C)CC2)ccc1Nc1ncc(Cl)c(N[C@@H]2CCCC[C@@H]2C(N)=O)n1 [Compound C-6, reference compound] | 101 to 1000 | > 1000 | > 1000 |  | 14 |
| Cc1cnc(Nc2ccc(N3CCN(C)CC3)cc2OC(F)F)nc1Nc1ccsc1C(N)=O [Compound I-4, 3-((2-((2-(difluoromethoxy)-4-(4-methylpiperazin-1-yl)phenyl)amino)-5-methylpyrimidin-4-yl)amino)thiophene-2-carboxamide] | 11 to 100 | 11 to 100 | > 1000 |  |  |
| CC(C)(C)N1CCN(c2ccc(Nc3ncc(Cl)c(Nc4sccc4C(N)=O)n3)c(OC(F)F)c2)CC1 [Compound I-22, 2-((2-((4-(4-(tert-butyl)piperazin-1-yl)-2-(difluoromethoxy)phenyl)amino)-5-chloropyrimidin-4-yl)amino)thiophene-3-carboxamide] | 11 to 100 | 11 to 100 | 11 to 100 |  |  |
| NC(=O)c1sccc1Nc1nc(Nc2ccc(N3CCC(N4CCCCC4)CC3)cc2OC(F)F)ncc1Cl [Compound I-58, 3-((2-((4-([1,4′-bipiperidin]-1′-yl)-2-(difluoromethoxy)phenyl)amino)-5-chloropyrimidin-4-yl)amino)thiophene-2-carboxamide] | 0.1 to 10 | 0.1 to 10 | 101 to 1000 |  |  |
